Data taken from patent US9815833B2, “Pyridine derivative and medical use thereof” (Chengdu Easton Biopharmaceuticals Co., Ltd., priority 2013, dated 2017).

Legend:
[1] = target: human FXa (Homo sapiens, UniProt P00742); assay: Human FXa inhibition assay (fluorogenic substrate); assay type: biochemical; conditions: human FXa 1 nM, substrate 106.7 μM, 30 minutes at room temperature, pH 8.0
Experimental: Inhibitory effects of the compounds of the present invention on human FXa were studied, to measure IC50 values thereof on human FXa.
human FXa enzyme (Sekisui Diagnostics, REF 526);
Fluorogenic substrate for the FXa assay (American diagnostic, Product No. 222F);
Buffer: 20 mM Tris-HCl, 200 mM NaCl, 2.5 mM CaCl2, pH 8.0.
(2) 10 mM of each compound was 5-fold diluted serially with buffer to different concentrations (from 40 μM to 0.00002048 μM);
(3) 6 μL of the above diluted solutions of Step (2) were added into each well of 384-well plate to make a final volume of 60 μL, and the final concentration of the compound ranged from 4 μM to […];
(4) 30 μL of human FXa enzyme (2 nM) was added into each well, with a final concentration of 1 nM;
(5) 24 μL human FXa fluorescent enzyme substrate (266.7 μM) was added into each well, with a final concentration of 106.7 μM;
(6) the plate was gently shaked for 5 minutes and then incubated for 30 minutes at room temperature, with avoidance from light;
(7) fluorescence signal was read at 360/440 nm, the inhibition percentage was measured, and 4 Parameter Logistic Model in Xlfit software was employed to calculate IC50.

[2] = test system: APTT of healthy mice; assay: Effects on APTT of healthy mice; assay type: in vivo, KM mice; conditions: 5 mg/kg i.g.; for APTT (sec): KM mice, blood collected 1 hour after administration, x ± SD, 10 mice per group; for anticoagulant effect (APTT) compared with positive drug Apixaban: mice, 1 h after administration, same dose
Source text: Test for four coagulation parameters (including prothrombin time (PT), activated partial thromboplastin time (APTT), thrombin time (TT) and fibrinogen (FIB)) belongs to one of clinical inspection items, and is necessary to thrombotic disease inspections or before the surgery. APTT mainly reflects whether the intrinsic coagulation system status is normal or not. Accordingly, the APTT value is used as a detection indicator in this test of the present invention. The anticoagulant effects of the compounds prepared in the Examples of the present invention were evaluated through the effects thereof on APTT of mice.
(§1) KM mice, weighing 28-30 g, male, 170 mice, provided by Chengdu Dashuo Biological Technology Co., Ltd.; Production facility license: SCXK (Chuan) 2008-24. Animals were housed in the animal room after purchased, adaptively observed for at least three days, and used for assays unless they were qualified for the quarantine standard.
(1) Grouping: mice were grouped and tested according to Table 1, wherein there were 10 mice in each group.
Mice in each group were administrated with the corresponding investigational drugs (mice in control group were administrated with the normal saline). At 1 hour after administration, blood was collected into 0.5 ml vacuum blood-collection tube containing sodium citrate from mice orbit. APTT values of animals were measured after collecting the blood samples.
Excel was used for statistics, experimental data were expressed as (x±SD), and two-sided T-test method was used to statistically compare the experimental data among multiple groups.

[3] = Pharmacokinetic studies on healthy rats; assay type: in vivo; conditions: male, rat, po, SD rats, 10 mg/kg i.g., plasma; for AUC(0-t): read-out: AUC0-24
Source text: SD rats were used as test animals, and LC/MS/MS method was applied for measuring the drug concentrations of rats at different time after administrating the compounds of the present invention by gavage, respectively. Pharmacokinetic behaviors of the compounds of the present invention on rats were studied, so as to evaluate the pharmacokinetic characteristics thereof.
as §1, with “SD rats,” for “KM mice,”, “180-220” for “28-30”, “40 rats, 5 rats in each group,” for “170 mice,”
3.1 Grouping: the rats were randomly grouped according to Table 3, with no significant difference among the groups;
Rats in each group was administrated by gavage with the corresponding investigational drugs according to Table 3, at 5 min, 10 min, 20 min, 30 min, 1 h, 2 h, 4 h, 6 h, 8 h, 10 h, 12 h, 24 h after administration, 0.5 ml of blood was taken into the vacuum blood-collection tubes containing heparin sodium, and centrifuged at 5,000 rpm to obtain plasma which was stored at −20° C.
50 μL plasma at each time after administration was taken, then 150 μL of acetonitrile was added, which was subjected to vortex at 1500 rpm for 2 minutes. Solution was centrifuged for 15 minutes (3500 r/min), after that 10 μL supernatant was analyzed by HPLC/MS/MS.
The pharmacokinetic behaviors of the investigational compounds were subjected to compartmental model fitting, and DAS 2.0 software was used to calculate the main pharmacokinetic parameters.

Chain of human FXa (P00742 235-488 limits assumed): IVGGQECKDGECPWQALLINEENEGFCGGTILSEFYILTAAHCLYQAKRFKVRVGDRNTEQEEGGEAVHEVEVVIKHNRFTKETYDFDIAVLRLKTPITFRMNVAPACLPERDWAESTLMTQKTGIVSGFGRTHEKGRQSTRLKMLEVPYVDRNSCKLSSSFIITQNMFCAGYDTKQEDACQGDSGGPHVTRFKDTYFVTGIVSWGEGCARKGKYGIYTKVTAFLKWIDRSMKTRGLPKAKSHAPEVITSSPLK
Chain of human FXa (P00742 41-179 partner limits assumed): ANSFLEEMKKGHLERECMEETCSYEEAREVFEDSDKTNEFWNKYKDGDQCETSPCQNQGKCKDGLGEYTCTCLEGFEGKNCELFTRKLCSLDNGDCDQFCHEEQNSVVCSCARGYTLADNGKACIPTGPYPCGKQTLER

With `COc1ccc(-n2nc(C(N)=O)c3c2C(=O)N(c2ccc(N4CCCC4=O)c(C)c2)CC3)cc1` [Example 16, 1-(4-methoxyphenyl)-7-oxo-6-[3-methyl-4-(2-oxo-pyrrolidin-1-yl)phenyl]-4,5,6,7-tetrahydro-1H-pyrazolo[3,4-c]pyridine-3-carboxamide] the IC50 [1] was 0.023 nM, the “APTT (sec)” value [2] was 29.89 ± 2.72 * * ^ΔΔ sec and the “anticoagulant effect (APTT) compared with positive drug Apixaban” value [2] was “significantly better than positive drug Apixaban”. For the same molecule, the Cmax [3] was 9450 ng/mL, the Tmax [3] was 0.25 h and the half-life [3] was 6.2 h. The AUC(0-t) [3] was 37700 ng·h/mL.
In the case of `COc1ccc(-n2nc(C(N)=O)c3c2C(=O)N(c2ccc(N4CCCC4=O)cc2C)CC3)cc1F` [Example 15, 1-(3-fluoro-4-methoxyphenyl)-7-oxo-6-[2-methyl-4-(2-oxo-pyrrolidin-1-yl)phenyl]-4,5,6,7-tetrahydro-1H-pyrazolo[3,4-c]pyridine-3-carboxamide], the IC50 [1] is reported as 0.124 nM, the “APTT (sec)” value [2] is reported as 27.97 ± 2.32 * * ^ΔΔ sec and the “anticoagulant effect (APTT) compared with positive drug Apixaban” value [2] is reported as “significantly better than positive drug Apixaban”. It also gave a Cmax [3] of 8750 ng/mL, a Tmax [3] of 0.25 h and a half-life [3] of 6.5 h. It also gave an AUC(0-t) [3] of 32400 ng·h/mL.
